For test [1], the system named is HCT 116 MTAP-knockout cells. Kind of test: Inhibition of proliferation of HCT116 MTAP-knockout cells (CellTiter-Glo, 6 days). Format: cell-based, human. The settings on record: for IC50: Homo sapiens, HCT-116, 144 h, proliferation inhibition, HCT116 MTAP-knockout, 6 days, CellTiter-Glo; for Selectivity: IC50 HCT116 wild-type cells / IC50 HCT116 MTAP-knockout cells. The method, then:
(§1) 1. HCT 116 MTAP-knockout cells and HCT 116 wild-type MTAP cells were plated in 96-well flat-bottom plates and cultured overnight at 37° C. and […] in McCoy's 5A medium containing 10% fetal bovine serum+1% penicillin-streptomycin.
(§2) 2. The next day, compounds were each dissolved in DMSO, diluted successively with DMSO and medium and then transferred to cell plates; the final concentration of each compound was 10 μM, 4-fold dilution was performed to obtain 9 concentration points, and a DMSO control was provided.
(§3) 3. Cells not treated with compound were subjected to CellTiter-Glo Luminescent Cell Viability Assay (Promega) to detect the cell viability, and reference was made to the kit instructions for the operation; the plates were then placed on an EnVision Multilabel Reader to detect luminescence signals.
(§4) 4. Meanwhile, the cell plates containing cells treated with compounds were cultured continuously at 37° C. and […] CO2 for 6 days.
(§5) 5. Then, the cell viability was also detected by CellTiter-Glo.
(§6) 6. Finally, dose response curves were plotted using the four parameter dose response curve module of GraphPad Prism v 9.2.0 software and proliferation inhibition IC50 (unit: nM) was calculated.

Test [2] relates to HCT 116 wild-type MTAP cells. Kind of test: Inhibition of proliferation of HCT116 wild-type MTAP cells (CellTiter-Glo, 6 days). The following applies: Homo sapiens, HCT-116, 144 h. Format: cell-based. As for the experimental part: as §1, §2, §3, §4, §5, §6

Each structure is given as a SMILES string. A value given as a limit tells only on which side of the number the result lay.

For `Cc1cc2nc(N)c3cncn3c2cc1C(=O)N(Cc1ccc(C(F)(F)F)nn1)CC1CC1` [Example 213, 4-amino-N-(cyclopropylmethyl)-7-methyl-N-((6-(trifluoromethyl)pyridazin-3-yl)methyl)imidazo[1,5-a]quinoxaline-8-carboxamide], in test [1], the IC50 is 15 nM and the Selectivity is given as 87.9. The same compound showed an IC50 in test [2] of 1320 nM.
With `CN(C(=O)c1ccc2nc(N)c3cncn3c2c1)C1COc2cc(-c3cnn(C)c3)ccc21` (stereo not drawn) [Example 214, 4-amino-N-methyl-N-(6-(1-methyl-1H-pyrazol-4-yl)-2,3-dihydrobenzofuran-3-yl)imidazo[1,5-a]quinoxaline-8-carboxamide], the IC50 is 188 nM in test [1] and above 10000 nM in test [2]. The compound further registered a Selectivity in test [1] above 53.1.
For `Nc1nc2cc(F)c(C(=O)N(Cc3ccc(C(F)(F)F)nn3)CC3CC3)cc2n2cncc12` [Example 215, 4-amino-N-(cyclopropylmethyl)-7-fluoro-N-((6-(trifluoromethyl)pyridazin-3-yl)methyl)imidazo[1,5-a]quinoxaline-8-carboxamide], in that order: 8 nM, 314 nM and 39.3.
As for `Nc1nc2ccc(C(=O)N(c3cn[nH]c3)[C@@H]3COc4cc(C(F)(F)F)ccc43)cc2n2cncc12` [Example 216, (S)-4-amino-N-(1H-pyrazol-4-yl)-N-(6-(trifluoromethyl)-2,3-dihydrobenzofuran-3-yl)imidazo[1,5-a]quinoxaline-8-carboxamide], the results for the IC50 in test [1] and in test [2] were 11 nM and 1080 nM, respectively. Also, the Selectivity in test [1] came out at 98.3.
On to `C[Si](C)(C)CCOCn1cc(N(C(=O)c2ccc3nc(N)c4cncn4c3c2)[C@@H]2COc3cc(C(F)(F)F)ccc32)cn1` [Example 217, (S)-4-amino-N-(6-(trifluoromethyl)-2,3-dihydrobenzofuran-3-yl)-N-(1-((2-(trimethylsilyl)ethoxy)methyl)-1H-pyrazol-4-yl)imidazo[1,5-a]quinoxaline-8-carboxamide], for which, in test [1], the IC50 stood at 41 nM and the Selectivity amounted to 13.3. The compound also had an IC50 in test [2] of 546 nM.
The corresponding values for `Cn1cc(N(C(=O)c2cc3c(cc2F)nc(N)c2cncn23)[C@@H]2COc3cc(C(F)(F)F)ccc32)cn1` [Example 218, (S)-4-amino-7-fluoro-N-(1-methyl-1H-pyrazol-4-yl)-N-(6-(trifluoromethyl)-2,3-dihydrobenzofuran-3-yl)imidazo[1,5-a]quinoxaline-8-carboxamide] are 2 nM, 23.5 and 47 nM.
In the case of `Cn1cc(N(C(=O)c2cc3c(cc2F)nc(N)c2cncn23)[C@@H]2COc3nc(C(F)(F)F)ccc32)cn1` [Example 219, (S)-4-amino-7-fluoro-N-(1-methyl-1H-pyrazol-4-yl)-N-(6-(trifluoromethyl)-2,3-dihydrofuro[2,3-b]pyridin-3-yl)imidazo[1,5-a]quinoxaline-8-carboxamide], in test [1], the IC50 was 3 nM and the Selectivity is 85.7. Further, in test [2], the IC50 is 257 nM.
The corresponding values for `C[C@@H]1CCN(C(=O)c2ccc3nc(N)c4cncn4c3c2)[C@@H](c2ccc3scnc3c2)C1` [Example 225, (4-aminoimidazo[1,5-a]quinoxalin-8-yl)((2R,4R)-2-(benzo[d]thiazol-5-yl)-4-methylpiperidin-1-yl)methanone] are 499 nM, above 20 and above 10000 nM.
For `Cc1cc2nc(N)c3cncn3c2cc1C(=O)N1CC[C@@H](C)C[C@@H]1c1ccc2scnc2c1` [Example 226, (4-amino-7-methylimidazo[1,5-a]quinoxalin-8-yl)((2R,4R)-2-(benzo[d]thiazol-5-yl)-4-methylpiperidin-1-yl)methanone], in that order: 322 nM, above 31 and above 10000 nM.
The corresponding values for `C[C@H]1CC[C@H](c2ccc3scnc3c2)N(C(=O)c2ccc3nc(N)c4cncn4c3c2)C1` [Example 227, (4-aminoimidazo[1,5-a]quinoxalin-8-yl)((2R,5S)-2-(benzo[d]thiazol-5-yl)-5-methylpiperidin-1-yl)methanone] are 12 nM, 283 and 3440 nM.
Take `Cc1cc2nc(N)c3cncn3c2cc1C(=O)N1C[C@@H](C)CC[C@@H]1c1ccc2scnc2c1` [Example 228, (4-amino-7-methylimidazo[1,5-a]quinoxalin-8-yl)((2R,5S)-2-(benzo[d]thiazol-5-yl)-5-methylpiperidin-1-yl)methanone]: in test [1], inhibition was half-maximal at 102 nM (IC50) and the Selectivity is 52.1. Inhibition in test [2] was half-maximal at 5320 nM (IC50).
Regarding `Cc1ncc2c(N)nc3ccc(C(=O)N(c4cnn(C)c4)[C@@H]4COc5cc(C(F)(F)F)ccc54)cc3n12` [Example 229, (S)-4-amino-1-methyl-N-(1-methyl-1H-pyrazol-4-yl)-N-(6-(trifluoromethyl)-2,3-dihydrobenzofuran-3-yl)imidazo[1,5-a]quinoxaline-8-carboxamide], the IC50 in test [1] stood at 16 nM; in test [2], 934 nM. In addition, in test [1], the Selectivity is reported as 58.4.
In test [1], `Cc1cc2nc(N)c3cncn3c2cc1C(=O)N(C)Cc1ccc(C(F)(F)F)cn1` [Example 230, 4-amino-N,7-dimethyl-N-((5-(trifluoromethyl)pyridin-2-yl)methyl)imidazo[1,5-a]quinoxaline-8-carboxamide] gave an IC50 of 108 nM and a Selectivity of 70.1. This compound also registered an IC50 in test [2] of 7570 nM.
In test [1], `Cc1cc2nc(N)c3cnc(C)n3c2cc1C(=O)N(C)Cc1ccc(C(F)(F)F)cn1` [Example 231, 4-amino-N,1,7-trimethyl-N-((5-(trifluoromethyl)pyridin-2-yl)methyl)imidazo[1,5-a]quinoxaline-8-carboxamide] came in with a half-maximal inhibitory concentration (IC50) of 174 nM and a Selectivity above 57.5. Also, the IC50 in test [2] was above 10000 nM.
In test [1], `Cn1cc(N(C(=O)c2cc3c(cc2F)nc(N)c2cccn23)[C@@H]2COc3cc(C(F)(F)F)ccc32)cn1` [Example 233, (S)-4-amino-7-fluoro-N-(1-methyl-1H-pyrazol-4-yl)-N-(6-(trifluoromethyl)-2,3-dihydrobenzofuran-3-yl)pyrrolo[1,2-a]quinoxaline-8-carboxamide] yielded an IC50 of 17 nM and a Selectivity of 33.2. Moreover, the IC50 in test [2] is 564 nM.
